Measurements: patent US8809500B2, “Complexes comprising mammalian raptor polypeptide and mammalian mTOR polypeptide” (Whitehead Institute For Biomedical Research, priority 2002, dated 2014)

Key:
[1] = biological target: T1, mTOR (Homo sapiens, UniProt P42345); test: In vitro kinase assay for mTOR activity, endogenous mTOR immunoprecipitates, GST-S6K1 substrate; format: biochemical; conditions: for effect on mTOR kinase activity of mTOR immunoprecipitates from treated cells: cells treated for 10 minutes: 500 mM sucrose, 1 mM H2O2, 1 μm valinomycin A, 100 mM 2-deoxyglucose; for sensitivity of kinase activity of immunoprecipitates of endogenous mTOR: 20 μM inhibitor, added 10 minutes prior to kinase assay
T1 construct: the kinase activity of immunoprecipitates of endogenous mTOR depends on the presence of mTOR; endogenous in cells; host or cells: HEK293T
Method: FIG. 8A is a gel showing deprivation of amino acids, leucine, or glucose increases the stability of raptor-mTOR complex and decreases mTOR kinase activity, effects reversed by stimulation with leucine or glucose. HEK293T cells were incubated for 50 minutes in RPMI lacking amino acids (−amino acids), leucine (−leucine), or glucose (−glucose) or left untreated (control). Duplicate plates of cells deprived of leucine or glucose were stimulated for 10 minutes with 52 μg/ml leucine (−leu+leu) or 11 mM glucose (−gluc+gluc), respectively. Cells were lysed, anti-mTOR immunoprecipitates prepared, and mTOR kinase activity determined with in vitro kinase assays containing ATP-[γ-^32P] and a GST-S6K1 fusion protein (Burnett et al., PNAS 95:1432-1437 (1998)). Kinase reactions were resolved by SDS-PAGE, proteins transferred to PVDF, ^32P-incorporation into GST-S6K1 detected with autoradiography (third panel from top) and levels of mTOR (top panel) and raptor (middle panel) determined by immunoblotting. Western blot analyses of cell lysates used to prepare mTOR immunoprecipitates showing effects of nutrient conditions on the phosphorylation state and gel mobility of S6K1 in vivo (bottom two panels).
Kinase assays were performed in a volume of 10 μl at 30° C. for 20 min and contained ¼ the washed mTOR immunoprecipitates from 10 million HEK293T cells growing on a 10-cm dish, 200 ng of a GST-S6K1 fusion protein (amino acids 332-502), 1 μCi of [γ-^32P]ATP, 25 mM Hepes-KOH, pH 7.4, 50 mM KCl, 20% glycerol, 10 mM MgCl2, 4 mM MnCl2, 1 mM DTT, and 50 μM unlabeled ATP. When inhibitors were used they were added to the mTOR immunoprecipitates 10 minutes prior to the start of the kinase assay. Reactions were stopped by the addition of 5 μl of 2× sample buffer. After boiling the samples for 3 min, proteins were resolved by 8% SDS-PAGE, transferred to PVDF (poly(vinylidene difluoride)), and phosphorylated proteins visualized with autoradiography. The same blots were then used to determine the levels of mTOR and raptor by western analysis. Kinase assays using recombinant mTOR were performed as described in Burnett et al., PNAS, 95:1432-1437 (1998), except that they were washed as above with Buffer B.

[2] = biological target: T2, mTOR-raptor complex (Homo sapiens, UniProt P42345+P62942); test: mTOR-raptor interaction: raptor co-precipitated in mTOR immunoprecipitates (western blot); format: cell-based; conditions: for effect on mTOR-raptor interaction (complex stability): cells treated for 10 minutes: 500 mM sucrose, 1 mM H2O2, 1 μm valinomycin A, 100 mM 2-deoxyglucose
T2 construct: endogenous in cells
Source text: Unless otherwise stated, for mTOR immunoprecipitates prepared in the absence of the cross-linker, cells were lysed in ice-cold Buffer B (Buffer A in which Triton X-100 is replaced by 0.3% CHAPS) and immunoprecipitates were washed four times in Buffer B and twice in Wash Buffer 2.

[3] = system: S6K1; test: In vivo phosphorylation state of S6K1 (T389) in cell lysates by western blot; format: cell-based, human
[4] = system: HEK293T cells; test: Leucine-induced growth experiment (cell size after leucine re-addition); conditions: HEK293T deprived of leucine 24 hours, then leucine 52 μg/ml; size at 6 and 10 hours; rapamycin added with leucine
Method: Cells were transfected with the indicated siRNAs and the experiment performed as described herein. […] Shown are mean±S.D. from samples for each time point.
(§1) Cells were then harvested, diluted 1:10 or 1:20 and replated in fresh media. At 1, 2, and 3 days after replating, the cells were harvested by trypsinization in 2 ml media, diluted 1:20 with counting solution (Isoflow Sheath Fluid, Coulter Corp.) and cell diameters and volumes determined using a particle size counter (Coulter Multisizer II). Cells between 11 and 21 μm in diameter were used for analysis. For the leucine-induced growth experiment, the siRNA transfected cells were diluted into fresh media one day after transfection and, at 24 hours after dilution the cells were deproved of leucine for a further 24 hours. The cells were then provided with leucine (52 μg/ml) and cell diameters, volumes, and numbers determined as above at 6 and 10 hours after the leucine supplementation.
Leucine was then added to the media and cell size measured at 6 and 10 hours after leucine addition.

[5] = system: HEK293T cells; test: Cell size determination in actively growing cells (Coulter Multisizer II); conditions: three days after siRNA transfection or 20 nM rapamycin for 48 hours
Method: Cell diameters and volumes were determined three days after transfection using a particle size counter (Coulter Multisizer II). […] Mean±S.D. values were obtained from the indicated numbers of independent trials in which at least 10,000 cells were analyzed per trial.
as §1

[6] = insulin 200 nM for 25 minutes, HEK293T in serum-free media for 24 hours

Row | Compound | effect on mTOR kinase activity of mTOR immunoprecipitates from treated cells [1] | effect on mTOR-raptor interaction (complex stability) [2] | also measured
1 | CC(C)[C@@H]1NC(=O)[C@H](C)OC(=O)[C@@H](C(C)C)NC(=O)[C@@H](C(C)C)OC(=O)[C@H](C(C)C)NC(=O)[C@H](C)OC(=O)[C@@H](C(C)C)NC(=O)[C@@H](C(C)C)OC(=O)[C@H](C(C)C)NC(=O)[C@H](C)OC(=O)[C@@H](C(C)C)NC(=O)[C@@H](C(C)C)OC1=O [valinomycin] | inhibited mTOR kinase activity | stabilized the mTOR-raptor interaction | –
2 | OC[C@H]1O[C@@](CO)(O[C@H]2O[C@H](CO)[C@@H](O)[C@H](O)[C@H]2O)[C@@H](O)[C@@H]1O [sucrose] | only a modest effect | only a modest effect | effect on phosphorylation state of S6K1 ([3]; cells treated for 10 minutes with 500 mM sucrose): decreased the phosphorylation state of S6K1
3 | insulin | – | – | effect on mTOR-raptor interaction [2, 6]: did not affect the raptor-mTOR interaction; effect on phosphorylation state of S6K1 [3, 6]: increased the phosphorylation state of S6K1
4 | OO [H2O2] | inhibited the mTOR kinase | stabilized the interaction | –
5 | CNCCNS(=O)(=O)c1cccc2cnccc12 [H-8] | – | – | sensitivity of kinase activity of immunoprecipitates of endogenous mTOR [1]: not
6 | O=CC[C@@H](O)[C@H](O)[C@H](O)CO [2-deoxyglucose] | inhibited mTOR kinase activity | stabilized the mTOR-raptor interaction | –
7 | CO[C@H]1C[C@@H]2CC[C@@H](C)[C@@](O)(O2)C(=O)C(=O)N2CCCC[C@H]2C(=O)O[C@H]([C@H](C)C[C@@H]2CC[C@@H](O)[C@H](OC)C2)CC(=O)[C@H](C)/C=C(\C)[C@@H](O)[C@@H](OC)C(=O)[C@H](C)C[C@H](C)/C=C/C=C/C=C/1C [rapamycin] | – | – | growth rate after leucine addition [4]: 1.02 % volume per hour; cell diameter, mean±S.D. [5]: 14.61±0.10 μm
8 | antimycin A | inhibited mTOR kinase activity | stabilized the mTOR-raptor interaction | –
9 | COc1cccc(-c2cc(=O)c3ccccc3o2)c1N [PD98059] | – | – | sensitivity of kinase activity of immunoprecipitates of endogenous mTOR [1]: not
